Experimental data as given in patent US7868135B2, “Compositions of lipopeptide antibiotic derivatives and methods of use thereof” (priority 2003, dated 2011).

Experiments:
[1] = system: Enterococcus faecium EFM0101 (VRE, MDR); test: Broad spectrum MIC, Table 17/18 column A; type: cell-based; details: condition A of Table 17, in µg/mL
Protocol: (§1) The antimicrobial lipopeptide derivatives described herein were tested for antimicrobial activity against Gram-positive bacteria as follows. The minimum inhibitory concentrations (MIC) of the antimicrobial lipopeptide derivatives of the invention were determined using NCCLS guidelines M7-A6 (2003) with a slight modification in that doubling serial dilutions were used to dilute the test compounds. The broth phase microdilution method was used. Isolated colonies of Staphylococcus aureus (MSSA) from an 18-24 hour blood agar plate cultures were used to inoculate cation adjusted Mueller-Hinton broth (CAMHB) supplemented with 0.625 mM calcium. […] A negative control containing media alone and a positive growth control containing bacteria with media alone were also included. MICs were determined after incubating the plates at about 37° C. for 24 hours. […] In Tables 1 to 16, R is the core cyclic peptide of amphomycin or aspartocin, which can be in the form of a β-isomer, an anhydro, a dianhydro, or any combination thereof. […] Furthermore, a person of skill in the art will appreciate that all the pounds, or groups of compounds, derived from the various combinations of and substituents shown in Tables 1 to 16, are disclosed by the present the same extent as if each compound or group of compounds was set forth individually.
(§2) Antimicrobial lipopeptide derivatives of the instant invention were tested for antimicrobial activity against Gram-positive bacteria in a variety of media conditions. The […] (MIC) of the antimicrobial lipopeptide derivatives were determined as described in Example 376. The various media used are described in Table 17.

[2] = system: Enterococcus faecalis EFS0004 (VSE); test: Broad spectrum MIC, Table 17/18 B, C, D (CAMHB; + 0.625 mM calcium; + calcium and 30% bovine serum); type: cell-based; details: in µg/mL; for MIC, media condition B: condition B: CAMHB; for MIC, media condition C: condition C: + 0.625 mM calcium; for MIC, media condition D: condition D: + calcium and 30% bovine serum
Protocol: as §1, §2

[3] = system: Staphylococcus aureus SAU0017 (MSSA); test: Broad spectrum MIC, Table 17/18 columns E, F (+ 0.625 mM calcium; + calcium and 30% bovine serum); type: cell-based; details: in µg/mL; for MIC, media condition E: condition E: + 0.625 mM calcium; for MIC, media condition F: condition F: + calcium and 30% bovine serum
Protocol: as §1, §2

[4] = system: Staphylococcus epidermidis SEP0375 (MRSE); test: Broad spectrum MIC, Table 17/18 column I; type: cell-based; details: condition I of Table 17, in µg/mL
Protocol: as §1, §2

[5] = system: Staphylococcus aureus SAU0065 (MRSA); test: Broad spectrum MIC, Table 17/18 column H; type: cell-based; details: condition H of Table 17, in µg/mL
Protocol: as §1, §2

[6] = system: Streptococcus pneumoniae SPN0023 (PRSP); test: Broad spectrum MIC, Table 17/18 column K; type: cell-based; details: condition K of Table 17, in µg/mL
Protocol: as §1, §2

[7] = system: Streptococcus pyogenes SPY0001 (PenS); test: Broad spectrum MIC, Table 17/18 column M; type: cell-based; details: condition M of Table 17, in µg/mL
Protocol: as §1, §2

[8] = system: S. aureus Smith (SAU0017, ATCC 19636); test: Intraperitoneal murine model of protection against infection (ED50, Table 21); type: in vivo, Staphylococcus aureus; details: Swiss CD1 mice infected i.p., compound i.v.
[9] = system: Streptococcus pneumoniae SPN0032 (PSSP); test: Broad spectrum MIC, Table 17/18 column L; type: cell-based; details: condition L of Table 17, in µg/mL
Protocol: as §1, §2

[10] = In vivo half-life after single i.v. administration, mice; details: female, Swiss CD1, mouse, plasma, iv, 10 mg/kg
[11] = system: Streptococcus pneumoniae SPN0002 (PISP); test: Broad spectrum MIC, Table 17/18 column J; type: cell-based; details: condition J of Table 17, in µg/mL
Protocol: as §1, §2

[12] = system: Staphylococcus aureus SAU0031 (VISA); test: Broad spectrum MIC, Table 17/18 column G; type: cell-based; details: condition G of Table 17, in µg/mL
Protocol: as §1, §2

[13] = system: E. faecalis EFS0040 (clinical isolate); test: Intraperitoneal murine model of protection against infection (ED50, Table 21); type: in vivo, Enterococcus faecalis; details: Swiss CD1 mice infected i.p., compound i.v.
Source text: A variety of in vivo models may be used to assess the antimicrobial properties of lipopeptide derivative compounds of this disclosure. For example, antimicrobial compounds of the instant disclosure may be tested for efficacy by measuring a compound's ability to protect a mouse against a microbial infection, such as an infection or disease caused by or related to Gram-positive bacteria, including Staphylococcus aureus, Streptococcus pneumoniae, and Enterococcus faecalis. […] A certain period after infection, mice are then individually treated, for example intravenously (i.v.), with a lipopeptide derivative of this disclosure.
Antimicrobial lipopeptide derivatives of the instant invention were tested for antimicrobial activity against Gram-positive bacteria in an intraperitoneal (i.p.) murine model (i.e., bacteria were injected i.p. and lipopeptide compounds were administered intravenously (i.v.)). Mice were infected with Staphylococcus aureus, Streptococcus pneumoniae, or Enterococcus faecalis, which were prepared as follows: S. aureus Smith (SAU0017, ATCC 19636) were grown in culture overnight on trypticase soy broth, harvested and then resuspended in fresh media containing 5% mucin (Sigma Chemical Co.); S. pneumoniae (SPN 0032, ATCC 10813) were grown overnight on blood agar plates and re-suspended in 0.9% sterile saline; and E. faecalis EFS0040 (clinical isolate) were grown overnight in culture on blood heart infusion broth, washed and resuspended in 0.9% saline and mixed with equal volume of sterile fecal rat extract. Swiss CD1 mice were each infected i.p. with bacteria at the following doses: S. aureus at 10^6 CFU/mouse; S. pneumoniae at 10^2 CFU/mouse; or E. faecalis at 10^7.5 CFU/mouse. […] The ED50 for each compound was calculated using the method of Reed and Meunch (Am. J. Hyg. 27: 493, 1938).

| SMILES | MIC, media condition A [1] | MIC, media condition B [2] | MIC, media condition C [2] | MIC, media condition D [2] | MIC, media condition E [3] | MIC, media condition F [3] | MIC, media condition I [4] | MIC, media condition H [5] | MIC, media condition K [6] | MIC, media condition M [7] | ED50 in Mice, S. aureus (SAU0017) [8] [mg/kg] | MIC, media condition L [9] | half-life [10] [h] | MIC, media condition J [11] | MIC, media condition G [12] | ED50 in Mice, E. faecalis (EFS0040) [13] [mg/kg] |
| --- | --- | --- | --- | --- | --- | --- | --- | --- | --- | --- | --- | --- | --- | --- | --- | --- |
| CCCCCCCCCCCCCCC(=O)NC(CC(=O)O)C(=O)NC1C(=O)N2CCCCC2C(=O)NC(C(C)C(=O)O)C(=O)NC(CC(=O)O)C(=O)NCC(=O)NC(CC(=O)O)C(=O)NCC(=O)NC(C(C)NC(=O)CNC(=O)[C@@H](N)CCCCN)C(=O)NC(C(C)C)C(=O)N2CCCC2C(=O)NC1C (some centres unmarked) [Compound 4, C15-Amphomycin-9-Gly-Lys] | 1 | 1-4 | 1-2 | >64 | 0.5-1 | 4 | 1-2 | 1-4 | 0.25 | 0.25 | 6.2 | 0.25-0.5 | 0.752 | 0.25 | 8 |  |
| CCCCCCCCCCCCCCC(=O)NC(CC(=O)O)C(=O)NC1C(=O)N2CCCCC2C(=O)NC(C(C)C(=O)O)C(=O)NC(CC(=O)O)C(=O)NCC(=O)NC(CC(=O)O)C(=O)NCC(=O)NC(C(C)NC(=O)CCN)C(=O)NC(C(C)C)C(=O)N2CCCC2C(=O)NC1C (stereo not drawn) [Compound 147, C15-Amphomycin-9-(β-Ala)] | 0.5-1 | 2 | 0.5-1 | 32 | 0.25-0.5 | 2 | 0.5-1 | 1 | 0.125 | 0.125 | 6.5 | 0.125 | 8.02 | 0.125 | 2 | 0.8 |
| CCCCCCCCCCCCCCC(=O)NC(CC(=O)O)C(=O)NC1C(=O)N2CCCCC2C(=O)NC(C(C)C(=O)O)C(=O)NC(CC(=O)O)C(=O)NCC(=O)NC(CC(=O)O)C(=O)NCC(=O)NC(C(C)NC(=O)CN(C)C(=O)[C@@H](N)CCCCN)C(=O)NC(C(C)C)C(=O)N2CCCC2C(=O)NC1C (some centres unmarked) [Compound 199, C15-Amphomycin-9-Sar-Lys] | 0.5-1 | 1-2 | 1-2 | 64 | 0.25-1 | 4-8 | 0.5-1 | 1-2 | 0.25 | 0.25 | 8 | 0.25-0.5 | 6.18 | 0.25 | 4-8 | 3 |
